From patent publication US20250171437A1 (Agios Pharmaceuticals,Inc., priority 2022, published 2025)

The compounds below were run against T1, human PAH with the R408W mutation (A375 R408W cells) (Homo sapiens, UniProt P00439, R408W) (assay: Cell Based Phenylalanine Flux Assay). Details: A375 R408W cells; 24 hrs with compound, then 20 μM sepiapterin and 800 μM 13C9,15N-Phenylalanine for 4 hours; 13C-Tyrosine by LC-MS; average where tested multiple times.
T1 construct: expressed in transfected cells
T1 sequence (P00439 1-452 R408W): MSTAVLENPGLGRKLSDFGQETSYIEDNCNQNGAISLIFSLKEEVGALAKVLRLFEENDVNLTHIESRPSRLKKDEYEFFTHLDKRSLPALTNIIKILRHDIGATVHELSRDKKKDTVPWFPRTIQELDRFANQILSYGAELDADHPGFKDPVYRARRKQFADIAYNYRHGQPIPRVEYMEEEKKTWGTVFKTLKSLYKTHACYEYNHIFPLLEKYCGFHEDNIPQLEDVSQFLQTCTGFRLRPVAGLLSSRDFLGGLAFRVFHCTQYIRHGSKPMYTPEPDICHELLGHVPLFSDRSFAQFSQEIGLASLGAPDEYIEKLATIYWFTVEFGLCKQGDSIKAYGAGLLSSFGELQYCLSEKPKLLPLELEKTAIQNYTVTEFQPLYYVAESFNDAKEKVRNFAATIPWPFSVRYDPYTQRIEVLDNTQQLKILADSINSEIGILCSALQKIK
Procedure, shortened: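 Stable R408W PAH A375 cells: 24 h compound pretreatment in duplicate, then 4 h with 800 μM isotope-labelled Phe and 20 μM sepiapterin. Labelled Tyr output by LC-MS; AC50 averaged where repeated.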

**Q.** Which AC50 does the source give for O=C(c1cnn2cc(N3CCC(O)CC3)ccc12)N1CCc2[nH]cnc2[C@@H]1c1nc2c(F)ccc(F)c2o1 [Example 896, (R)-(4-(4,7-difluorobenzo[d]oxazol-2-yl)-6,7-dihydro-1H-imidazo[4,5-c]pyridin-5(4H)-yl)(6-(4-hydroxypiperidin-1-yl)pyrazolo[1,5-a]pyridin-3-yl)methanone] here?
**A.** ≥ 5000 nM

**Q.** Which AC50 does the source give for Cn1cncc1-c1nc(C(F)F)c(C(=O)N2CCc3[nH]cnc3[C@H]2c2nc3cc(F)ccc3o2)o1 [Example 687, (S)-(4-(difluoromethyl)-2-(1-methyl-1H-imidazol-5-yl)oxazol-5-yl)(4-(5-fluorobenzo[d]oxazol-2-yl)-6,7-dihydro-1H-imidazo[4,5-c]pyridin-5(4H)-yl)methanone] here?
**A.** 500 to 1000 nM

**Q.** Which AC50 does the source give for O=C(c1ocnc1C(F)(F)F)N1CCc2[nH]cnc2[C@H]1c1nc2ccc(Br)cc2o1 [Example 143, (S)-(4-(6-bromobenzo[d]oxazol-2-yl)-6,7-dihydro-1H-imidazo[4,5-c]pyridin-5(4H)-yl)(4-(trifluoromethyl)oxazol-5-yl)methanone] here?
**A.** ≤ 500 nM

**Q.** For FC(F)(F)c1nnc(N2Cc3[nH]cnc3[C@@H]2c2nc3ccccc3o2)o1 [Example 945, (R)-2-(5-(5-(trifluoromethyl)-1,3,4-oxadiazol-2-yl)-1,4,5,6-tetrahydropyrrolo[3,4-d]imidazol-4-yl)benzo[d]oxazole], which AC50 is on record?
**A.** ≥ 5000 nM

**Q.** With Cc1nc([C@H](C)O)oc1C(=O)N1CCc2[nH]cnc2[C@@H]1c1nc2cccc(F)c2o1 [Example 248, ((R)-4-(7-fluorobenzo[d]oxazol-2-yl)-6,7-dihydro-1H-imidazo[4,5-c]pyridin-5(4H)-yl)(2-((S)-1-hydroxyethyl)-4-methyloxazol-5-yl)methanone] as the compound, how does the AC50 read?
**A.** 1000 to 5000 nM

**Q.** Cn1ccc(-c2nc(C(F)F)c(C(=O)N3CCc4[nH]cnc4[C@H]3c3nc4ccccc4o3)o2)n1 [Example 761, (S)-(4-(benzo[d]oxazol-2-yl)-6,7-dihydro-1H-imidazo[4,5-c]pyridin-5(4H)-yl)(4-(difluoromethyl)-2-(1-methyl-1H-pyrazol-3-yl)oxazol-5-yl)methanone] was tested. Which AC50 did it give?
**A.** ≤ 500 nM

**Q.** How did the AC50 turn out when CC(C)(O)c1nc(Cl)c(C(=O)N2CCc3[nH]cnc3[C@@H]2c2nc3c(F)cccc3o2)o1 [Example 273, (R)-(4-chloro-2-(2-hydroxypropan-2-yl)oxazol-5-yl)(4-(4-fluorobenzo[d]oxazol-2-yl)-6,7-dihydro-1H-imidazo[4,5-c]pyridin-5(4H)-yl)methanone] was run?
**A.** 1000 to 5000 nM

**Q.** How did the AC50 turn out when O=C(c1ccnn1C(F)F)N1Cc2[nH]cnc2[C@H]1c1nc2ccccc2o1 [Example 951, (S)-(4-(benzo[d]oxazol-2-yl)-4,6-dihydropyrrolo[3,4-d]imidazol-5(1H)-yl)(1-(difluoromethyl)-1H-pyrazol-5-yl)methanone] was run?
**A.** 1000 to 5000 nM

**Q.** Which AC50 does the source give for C[C@@H](O)c1nc(C(F)F)c(C(=O)N2CCc3[nH]cnc3[C@H]2c2nc3ccc(F)cc3o2)o1 [Example 239, (4-(difluoromethyl)-2-((R)-1-hydroxyethyl)oxazol-5-yl)((S)-4-(6-fluorobenzo[d]oxazol-2-yl)-6,7-dihydro-1H-imidazo[4,5-c]pyridin-5(4H)-yl)methanone] here?
**A.** 500 to 1000 nM

**Q.** How did the AC50 turn out when Cc1cc(F)c2oc([C@@H]3c4nc[nH]c4CCN3C(=O)c3oc(C(C)(C)O)nc3C(F)F)nc2c1 [Example 499, (S)-(4-(difluoromethyl)-2-(2-hydroxypropan-2-yl)oxazol-5-yl)(4-(7-fluoro-5-methylbenzo[d]oxazol-2-yl)-6,7-dihydro-1H-imidazo[4,5-c]pyridin-5(4H)-yl)methanone] was run?
**A.** ≤ 500 nM

**Q.** With COc1cccc2nc([C@@H]3c4nc[nH]c4CCN3C(=O)c3nc(C(F)(F)F)nn3C)oc12 [Example 697, (S)-(4-(7-methoxybenzo[d]oxazol-2-yl)-6,7-dihydro-1H-imidazo[4,5-c]pyridin-5(4H)-yl)(1-methyl-3-(trifluoromethyl)-1H-1,2,4-triazol-5-yl)methanone] as the compound, how does the AC50 read?
**A.** 500 to 1000 nM

**Q.** With Cc1ccc2nc([C@@H]3c4nc[nH]c4CCN3C(=O)c3ocnc3C(F)(F)F)oc2c1 [Example 57, (S)-(4-(6-methylbenzo[d]oxazol-2-yl)-6,7-dihydro-1H-imidazo[4,5-c]pyridin-5(4H)-yl)(4-(trifluoromethyl)oxazol-5-yl)methanone] as the compound, how does the AC50 read?
**A.** ≤ 500 nM

**Q.** How did the AC50 turn out when COc1cccc2nc([C@H]3c4nc[nH]c4CCN3C(=O)c3ncnn3C)oc12 [Example 776, (R)-(4-(7-methoxybenzo[d]oxazol-2-yl)-6,7-dihydro-1H-imidazo[4,5-c]pyridin-5(4H)-yl)(1-methyl-1H-1,2,4-triazol-5-yl)methanone] was run?
**A.** 1000 to 5000 nM

**Q.** How did the AC50 turn out when O=C(c1ccnn1C1CC1)N1CCc2[nH]cnc2[C@@H]1c1nc2cccc(F)c2o1 [Example 728, (R)-(1-cyclopropyl-1H-pyrazol-5-yl)(4-(7-fluorobenzo[d]oxazol-2-yl)-6,7-dihydro-1H-imidazo[4,5-c]pyridin-5(4H)-yl)methanone] was run?
**A.** ≥ 5000 nM

**Q.** O=C(c1oc(-c2ccc(C(F)(F)F)cn2)nc1C(F)F)N1CCc2[nH]cnc2[C@@H]1c1nc2cccc(F)c2o1 [Example 634, (R)-(4-(difluoromethyl)-2-(5-(trifluoromethyl)pyridin-2-yl)oxazol-5-yl)(4-(7-fluorobenzo[d]oxazol-2-yl)-6,7-dihydro-1H-imidazo[4,5-c]pyridin-5(4H)-yl)methanone] was tested. Which AC50 did it give?
**A.** ≤ 500 nM

**Q.** With O=C(c1ocnc1C(F)F)N1CCc2[nH]cnc2[C@@H]1c1nc2c(C(F)(F)F)cccc2o1 [Example 466, (R)-(4-(difluoromethyl)oxazol-5-yl)(4-(4-(trifluoromethyl)benzo[d]oxazol-2-yl)-6,7-dihydro-1H-imidazo[4,5-c]pyridin-5(4H)-yl)methanone] as the compound, how does the AC50 read?
**A.** 500 to 1000 nM

**Q.** How did the AC50 turn out when O=C(c1cnn(CC(F)(F)F)c1C(F)F)N1CCc2[nH]cnc2[C@H]1c1nc2cc(F)ccc2o1 [Example 183, (S)-(5-(difluoromethyl)-1-(2,2,2-trifluoroethyl)-1H-pyrazol-4-yl)(4-(5-fluorobenzo[d]oxazol-2-yl)-6,7-dihydro-1H-imidazo[4,5-c]pyridin-5(4H)-yl)methanone] was run?
**A.** 500 to 1000 nM

**Q.** Which AC50 does the source give for Cc1ccc2c(C(=O)N3CCc4[nH]cnc4[C@H]3c3nc4cc(F)ccc4o3)cnn2c1 [Example 19, (S)-(4-(5-fluorobenzo[d]oxazol-2-yl)-6,7-dihydro-1H-imidazo[4,5-c]pyridin-5(4H)-yl)(6-methylpyrazolo[1,5-a]pyridin-3-yl)methanone] here?
**A.** 1000 to 5000 nM

**Q.** Which AC50 does the source give for Cc1cccc2nc([C@@H]3c4nc[nH]c4CCN3C(=O)c3ccnn3C)oc12 [Example 747, (S)-(1-methyl-1H-pyrazol-5-yl)(4-(7-methylbenzo[d]oxazol-2-yl)-6,7-dihydro-1H-imidazo[4,5-c]pyridin-5(4H)-yl)methanone] here?
**A.** ≤ 500 nM

**Q.** How did the AC50 turn out when CC(C)(C)c1ncc(C(=O)N2CCc3[nH]cnc3[C@H]2c2nc3cc(F)ccc3o2)s1 [Example 17, (S)-(2-(tert-butyl)thiazol-5-yl)(4-(5-fluorobenzo[d]oxazol-2-yl)-6,7-dihydro-1H-imidazo[4,5-c]pyridin-5(4H)-yl)methanone] was run?
**A.** ≤ 500 nM

**Q.** For O=C(c1oc(C2(O)CC2)nc1C(F)F)N1CCc2[nH]cnc2[C@H]1c1nc2ccc(F)cc2o1 [Example 237, (S)-(4-(difluoromethyl)-2-(1-hydroxycyclopropyl)oxazol-5-yl)(4-(6-fluorobenzo[d]oxazol-2-yl)-6,7-dihydro-1H-imidazo[4,5-c]pyridin-5(4H)-yl)methanone], which AC50 is on record?
**A.** 1000 to 5000 nM

**Q.** For O=C(c1oc(-c2cncnc2)nc1C(F)F)N1CCc2[nH]cnc2[C@H]1c1nc2cc(F)ccc2o1 [Example 406, (S)-(4-(difluoromethyl)-2-(pyrimidin-5-yl)oxazol-5-yl)(4-(5-fluorobenzo[d]oxazol-2-yl)-6,7-dihydro-1H-imidazo[4,5-c]pyridin-5(4H)-yl)methanone], which AC50 is on record?
**A.** ≤ 500 nM

**Q.** O=C(CC1(O)CCC1)N1CCc2[nH]cnc2[C@H]1c1nc2cc(F)ccc2o1 [Example 55, (S)-1-(4-(5-fluorobenzo[d]oxazol-2-yl)-6,7-dihydro-1H-imidazo[4,5-c]pyridin-5(4H)-yl)-2-(1-hydroxycyclobutyl)ethanone] was tested. Which AC50 did it give?
**A.** 500 to 1000 nM

Same assay, conditions: A375 cells expressing R408W PAH; 24 hrs with compound, then 20 μM sepiapterin and 800 μM 13C9,15N-Phenylalanine for 4 hours; 13C-Tyrosine by LC-MS; average where tested multiple times

**Q.** Which AC50 does the source give for O=C(c1cnn2cc(N3CCC(O)CC3)ccc12)N1CCc2[nH]cnc2C1c1nc2c(F)c(F)ccc2o1 (stereo not shown) here?
**A.** ≥ 5000 nM

**Q.** Which AC50 does the source give for CN1C2CCC1CN(c1ccc3c(C(=O)N4CCc5[nH]cnc5C4c4nc5cc(F)ccc5o4)cnn3c1)C2 (single isomer, unassigned) here?
**A.** ≥ 5000 nM

**Q.** With Cc1ccc2nc(C3c4nc[nH]c4CCN3C(=O)c3cnco3)oc2c1 (stereo not shown) as the compound, how does the AC50 read?
**A.** ≥ 5000 nM

**Q.** How did the AC50 turn out when O=C(c1nnc(-c2cc[nH]n2)o1)N1CCc2[nH]cnc2C1c1nc2cc(F)ccc2o1 (stereo not shown) was run?
**A.** 1000 to 5000 nM

**Q.** With O=C(CCc1cnco1)N1CCc2[nH]cnc2C1c1nc2ccc(F)cc2o1 (stereo not shown) as the compound, how does the AC50 read?
**A.** 1000 to 5000 nM

**Q.** How did the AC50 turn out when CC(C)(O)c1cc(C(=O)N2CCc3[nH]cnc3C2c2nc3cc(F)ccc3o2)sn1 (stereo not shown) was run?
**A.** ≥ 5000 nM

**Q.** Cc1nc(C(C)(C)N(C)C)oc1C(=O)N1CCc2[nH]cnc2C1c1nc2cc(F)ccc2o1 (stereo not shown) was tested. Which AC50 did it give?
**A.** 1000 to 5000 nM

**Q.** For O=C(c1cnc(N2CCC(F)CC2)o1)N1CCc2[nH]cnc2C1c1nc2cc(F)ccc2o1 (stereo not shown), which AC50 is on record?
**A.** ≥ 5000 nM
